Results reported in ChEMBL document CHEMBL5321295, “Targeted Degradation of Alpha-Synuclein by Autophagosome-Anchoring Chimera Peptides” (J Med Chem, 2023).
Active and inactive are the calls of the source.

Columns and labels:
Alpha-synuclein [1] = target: T1, Alpha-synuclein (Homo sapiens, UniProt P37840); test: Induction of alpha-synuclein (unknown origin) degradation overexpressed in HEK293T cells infected with adenovirus expressing mCherry-EGFP-LC3B at 50 uM incubated for 3 hrs by immunoblot analysis; assay type: cell-based
[2] = target: T2, Microtubule-associated protein 1 light chain 3 beta (Homo sapiens, UniProt Q9GZQ8); test: Induction of LC3B-mediated autophagy flux in HEK293T cells overexpressing alpha-synuclein (unknown origin) assessed as increase in LAMP1 level upto 100 uM incubated for 4 hrs by immunoblot analysis; assay type: cell-based
Alpha-synuclein [3] = target: T1, Alpha-synuclein; test: Binding affinity to alpha-synuclein (unknown origin) overexpressed in HEK293T cells assessed as shift in denaturation at 50 uM incubated for 4 hrs followed by heating at 40 to 75 degreeC for 3 mins by CETSA assay; assay type: cell-based; conditions: time 243.0 min
[4] = Toxicity in C57BL/6 mouse assessed as ataxia at 50 to 200 mg/kg/day treated for 5 days; assay type: organism-based; conditions: in vivo, 120 h, dose 50-200 mg/kg/day, time 5 day
HEK-293T [5] = test: Downregulation of SNCA expression in HEK293T cells at 100 uM incubated for 24 hrs by proteomic profiling analysis; assay type: functional, cell-based; conditions: Homo sapiens
[6] = Toxicity in C57BL/6 mouse assessed as depression in ST segment of cardiac electrophysiology at 200 mg/kg/day treated for 5 days by ECG analysis; assay type: organism-based; conditions: in vivo, 120 h, time 5 day
Mus musculus [7] = test: Downregulation of alpha-synuclein level in substantia nigra pars compacta of MPTP-treated C57BL/6 mouse at 50 mg/kg/day, iv treated for 5 days by IHC analysis; assay type: functional, organism-based; conditions: time 5.0 day
Mus musculus [8] = test: Neuroprotective activity in MPTP-induced cognitive impairment in C57BL/6 mouse assessed as increase in platform crossover number in probe trial phase at 50 mg/kg/day, iv treated for 5 days measured after 5 to 8 days days by morris water maze test; assay type: functional, organism-based; conditions: time 10-13 day
Mus musculus [9] = test: Neuroprotective activity in MPTP-treated C57BL/6 mouse assessed as increase in dopaminergic neurons of substantia nigra pars compacta at 50 mg/kg/day, iv treated for 5 days by immunofluorescent staining of tyrosine hydroxylase based microscopy; assay type: functional, organism-based; conditions: time 5.0 day
HEK-293T [10] = test: Cytotoxicity against wild-type HEK293T cells assessed as cell viability upto 200 uM incubated for 24 hrs by CCK8 assay; assay type: toxicity, cell-based; conditions: human
SH-SY5Y [11] = test: Cytoprotective activity in human SH-SY5Y cells transfected with alpha-synuclein (unknown origin) assessed as necrotic cells at 100 uM measured after 24 hrs by […] based flow cytometry (reference value: 14.8 %); assay type: functional
HEK-293T [12] = test: Downregulation of NME1 expression in HEK293T cells at 100 uM incubated for 24 hrs by proteomic profiling analysis; assay type: functional, cell-based; conditions: Homo sapiens
HEK-293T [13] = test: Downregulation of SMAP expression in HEK293T cells at 100 uM incubated for 24 hrs by proteomic profiling analysis; assay type: functional, cell-based; conditions: Homo sapiens
SH-SY5Y [14] = test: Cytoprotective activity against CCCP-induced cytotoxicity in human SH-SY5Y cells assessed as cell viability at 100 uM by CCK8 assay; assay type: functional, cell-based
[15] = Toxicity in C57BL/6 mouse assessed as change in uric acid level at 50 to 200 mg/kg/day treated for 5 days; assay type: organism-based; conditions: in vivo, 120 h, dose 50-200 mg/kg/day, time 5 day
HEK-293T [16] = test: Downregulation of VAT1 expression in HEK293T cells at 100 uM incubated for 24 hrs by proteomic profiling analysis; assay type: functional, cell-based; conditions: Homo sapiens
Mus musculus [17] = test: Downregulation of total aggregated protein level in substantia nigra pars compacta of MPTP-treated C57BL/6 mouse at 50 mg/kg/day, iv treated for 5 days by ThS staining based analysis; assay type: functional, organism-based; conditions: time 5.0 day
[18] = Toxicity in C57BL/6 mouse assessed as lethargy at 50 to 200 mg/kg/day treated for 5 days; assay type: organism-based; conditions: in vivo, 120 h, dose 50-200 mg/kg/day, time 5 day
[19] = Drug localization in HEK293T cells overexpressing mCherry-fused alpha-synuclein (unknown origin) assessed as puncta formation of alpha-synuclein at 50 uM incubated for 2 hrs by LyTG staining based confocal laser scanning microscopy; assay type: ADME, cell-based; conditions: human, hek-293t
HEK-293T [20] = test: Downregulation of EIF4H expression in HEK293T cells at 100 uM incubated for 24 hrs by proteomic profiling analysis; assay type: functional, cell-based; conditions: Homo sapiens
Mus musculus [21] = test: Downregulation of phosphorylated alpha-synuclein at S129 residue level in substantia nigra pars compacta of MPTP-treated C57BL/6 mouse at 50 mg/kg/day, iv treated for 5 days by IHC analysis; assay type: functional, organism-based; conditions: time 5.0 day
[22] = Toxicity in C57BL/6 mouse assessed as reduction in ALT level at 200 mg/kg/day treated for 5 days; assay type: organism-based; conditions: in vivo, 120 h, time 5 day
HEK-293T [23] = test: Downregulation of DYNC1I2 expression in HEK293T cells at 100 uM incubated for 24 hrs by proteomic profiling analysis; assay type: functional, cell-based; conditions: Homo sapiens
[24] = Toxicity in C57BL/6 mouse assessed as histological change in kidney at 50 to 200 mg/kg/day treated for 5 days by H and E staining based analysis; assay type: organism-based; conditions: in vivo, 120 h, dose 50-200 mg/kg/day, time 5 day
Mus musculus [25] = test: Downregulation of aggregated alpha-synuclein level in substantia nigra pars compacta of MPTP-treated C57BL/6 mouse at 50 mg/kg/day, iv treated for 5 days by IHC analysis; assay type: functional, organism-based; conditions: time 5.0 day
Mus musculus [26] = test: Neuroprotective activity in MPTP-induced cognitive impairment in C57BL/6 mouse assessed as increase in distance travelled in target quadrant in probe trial phase at 50 mg/kg/day, iv treated for 5 days measured after 5 to 8 days days by morris water maze test; assay type: functional, organism-based; conditions: time 10-13 day
HEK-293T [27] = test: Downregulation of ELOB expression in HEK293T cells at 100 uM incubated for 24 hrs by proteomic profiling analysis; assay type: functional, cell-based; conditions: Homo sapiens
Alpha-synuclein [28] = target: T1, Alpha-synuclein; test: Induction of alpha-synuclein (unknown origin) degradation overexpressed in HEK293T cells at 50 uM incubated for 24 hrs in presence of Rapamycin by immunoblot analysis; assay type: cell-based
Mus musculus [29] = test: Neuroprotective activity in MPTP-induced anxiety-like status in C57BL/6 mouse assessed as increase in distance travelled in zone centers of mouse track at 50 mg/kg/day, iv treated for 5 days measured after 4 days by open field test; assay type: functional, organism-based; conditions: time 9.0 day
[30] = Drug localization in HEK293T cells overexpressing mCherry-fused alpha-synuclein (unknown origin) assessed as colocalization of lysosomes at 50 uM incubated for 2 hrs by MDC staining based confocal laser scanning microscopy; assay type: ADME, cell-based; conditions: human, hek-293t
SH-SY5Y [31] = test: Cytoprotective activity in human SH-SY5Y cells transfected with alpha-synuclein (unknown origin) assessed as decrease in ROS level at 100 uM measured after 24 hrs by confocal laser scanning microscopy/flow cytometry (reference value: 175.4 +/- 8.4 %); assay type: functional; design: scale not given: the % may be the effect or the level left
[32] = target: T2, Microtubule-associated protein 1 light chain 3 beta; test: Induction of LC3B-mediated autophagy flux in HEK293T cells overexpressing alpha-synuclein (unknown origin) cotransfected with adenovirus-packaged plasmid encoding mCherry-EGFP-fused LC3B assessed as increase in number of autophagosomes incubated for 4 hrs by confocal laser scanning microscopy; assay type: cell-based; conditions: dose <= 100.0 µM
HEK-293T [33] = test: Downregulation of AGPS expression in HEK293T cells at 100 uM incubated for 24 hrs by proteomic profiling analysis; assay type: functional, cell-based; conditions: Homo sapiens
HEK-293T [34] = test: Downregulation of MYL12A expression in HEK293T cells at 100 uM incubated for 24 hrs by proteomic profiling analysis; assay type: functional, cell-based; conditions: Homo sapiens
[35] = Chemical stability of compound in cell culture medium at 50 uM measured for 24 hrs by HPLC analysis; assay type: physicochemical

CC(C)C[C@H](NC(=O)[C@H](Cc1c[nH]cn1)NC(=O)[C@@H](NC(=O)[C@H](Cc1c[nH]c2ccccc12)NC(=O)[C@H](CC(=O)O)NC(=O)[C@H](CC(=O)O)NC(=O)[C@H](CC(=O)O)NC(=O)CNC(=O)CNC(=O)[C@H](CO)NC(=O)[C@H](CO)NC(=O)CNC(=O)[C@H](CO)NC(=O)CNC(=O)[C@H](CCCNC(=N)N)NC(=O)[C@@H](NC(=O)[C@H](CCCCN)NC(=O)[C@H](CO)NC(=O)CNC(=O)[C@@H](NC(=O)[C@H](Cc1ccc(O)cc1)NC(=O)[C@H](CC(C)C)NC(=O)[C@@H](NC(=O)CN)C(C)C)C(C)C)[C@H](C)O)[C@@H](C)O)C(=O)N[C@@H](CO)C(=O)N[C@@H](CO)C(=O)N[C@@H](Cc1ccc(O)cc1)C(=O)NCC(=O)N[C@@H](CCCNC(=N)N)C(=O)N[C@@H](CCCCN)C(=O)N[C@@H](CCCCN)C(=O)N[C@@H](CCCNC(=N)N)C(=O)N[C@@H](CCCNC(=N)N)C(=O)N[C@@H](CCC(N)=O)C(=O)N[C@@H](CCCNC(=N)N)C(=O)N[C@@H](CCCNC(=N)N)C(=O)N[C@@H](CCCNC(=N)N)C(=O)O
Toxic: Activity [6] | Activity [22]
inactive: Activity (SH-SY5Y [14])
active: Activity (Alpha-synuclein [1]) | Activity [2] | Activity (Alpha-synuclein [3]) | Activity (HEK-293T [5]) | Activity (Mus musculus [7]) | Activity (Mus musculus [8]) | Activity (Mus musculus [9]) | Activity (HEK-293T [12]) | Activity (HEK-293T [13]) | Activity (HEK-293T [16]) | Activity (Mus musculus [17]) | Activity (HEK-293T [20]) | Activity (Mus musculus [21]) | Activity (HEK-293T [23]) | Activity (Mus musculus [25]) | Activity (Mus musculus [26]) | Activity (HEK-293T [27]) | Activity (Alpha-synuclein [28]) | Activity (Mus musculus [29]) | Activity [32] Dose-Dependent Effect | Activity (HEK-293T [33]) | Activity (HEK-293T [34])
4.07%: Activity (SH-SY5Y [11])
Non-Toxic: Activity [4] | Activity (HEK-293T [10]) | Activity [15] | Activity [18] | Activity [24]
Stable: Stability [35]
Active: Drug uptake [19] | Drug uptake [30]
127.7%: Activity (SH-SY5Y [31])
